Data from the supplement of paper PMC10307832.

Assays:
Assay in all cases: relative viability (nuclei count vs DMSO), 5 days (fraction); higher = more cells survive
[1] = compound: COc1cc(-c2nn([C@H]3CC[C@H](N4CCN(C(C)=O)CC4)CC3)c3ncnc(N)c23)ccc1NC(=O)c1cc2ccccc2n1C + CC(C)C[C@H](NC(=O)[C@H](Cc1ccccc1)NC(=O)c1cnccn1)B(O)O [Bortezomib] (partner 0.002 µM)
Procedure, shortened: (§1)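 Nuclei were stained with Hoechst during a one-step fixation (final 0.05% Triton X-100, 1% formaldehyde, 1 ug/ml Hoechst) carried out 5 days after dosing, then counted on 4× images. The cells, lung cancer lines in 1536-well plates, had been dosed by pin tool the day after seeding with one drug alone or a fixed anchor-drug dose plus five library-drug doses (not always all listed) in √10 steps. Relative viability is the nuclei count in treated wells divided by that in vehicle wells, and each value is the median of duplicate plates.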

[2] = compound: COc1cc(-c2nn([C@H]3CC[C@H](N4CCN(C(C)=O)CC4)CC3)c3ncnc(N)c23)ccc1NC(=O)c1cc2ccccc2n1C + C[C@]1(O)C[C@@H](c2nc(-c3ccc4ccc(-c5ccccc5)nc4c3)c3c(N)nccn32)C1 [Linsitinib] (partner 1 µM)
Procedure, shortened: as §1

Midostaurin + Crizotinib = compound: CO[C@@H]1[C@H](N(C)C(=O)c2ccccc2)C[C@H]2O[C@]1(C)n1c3ccccc3c3c4c(c5c6ccccc6n2c5c31)C(=O)NC4 [Midostaurin] + C[C@@H](Oc1cc(-c2cnn(C3CCNCC3)c2)cnc1N)c1c(Cl)ccc(F)c1Cl [Crizotinib] (partner 1 µM)
Procedure, shortened: as §1

Midostaurin + Tozasertib = compound: CO[C@@H]1[C@H](N(C)C(=O)c2ccccc2)C[C@H]2O[C@]1(C)n1c3ccccc3c3c4c(c5c6ccccc6n2c5c31)C(=O)NC4 [Midostaurin] + Cc1cc(Nc2cc(N3CCN(C)CC3)nc(Sc3ccc(NC(=O)C4CC4)cc3)n2)n[nH]1 [Tozasertib] (partner 0.1 µM)
Procedure, shortened: as §1

[3] = compound: COc1cc(-c2nn([C@H]3CC[C@H](N4CCN(C(C)=O)CC4)CC3)c3ncnc(N)c23)ccc1NC(=O)c1cc2ccccc2n1C + COc1cc2c(Oc3ccc(NC(=O)C4(C(=O)Nc5ccc(F)cc5)CC4)cc3F)ccnc2cc1OCCCN1CCOCC1 [Foretinib] (partner 0.25 µM)
Procedure, shortened: as §1

Cell Line | relative viability ([1]; first compound 0.0128 µM) | relative viability ([1]; first compound 0.04048 µM) | relative viability ([1]; first compound 0.128 µM) | relative viability ([1]; first compound 1.28 µM) | relative viability ([2]; first compound 0.0128 µM) | relative viability ([2]; first compound 0.04048 µM) | relative viability ([2]; first compound 0.128 µM) | relative viability ([2]; first compound 1.28 µM) | relative viability (Midostaurin + Crizotinib; first compound 0.01 µM) | relative viability (Midostaurin + Crizotinib; first compound 0.03162 µM) | relative viability (Midostaurin + Crizotinib; first compound 0.1 µM) | relative viability (Midostaurin + Crizotinib; first compound 0.3162 µM) | relative viability (Midostaurin + Tozasertib; first compound 0.01 µM) | relative viability (Midostaurin + Tozasertib; first compound 0.03162 µM) | relative viability (Midostaurin + Tozasertib; first compound 0.1 µM) | relative viability (Midostaurin + Tozasertib; first compound 0.3162 µM) | relative viability ([3]; first compound 0.0128 µM) | relative viability ([3]; first compound 0.04048 µM) | relative viability ([3]; first compound 0.128 µM) | relative viability ([3]; first compound 1.28 µM)
HCC-15 | 1.25 | 1 | 0.963 | 1.11 | 0.922 | 0.807 | 0.815 | 0.662 | 0.842 | 0.829 | 0.841 | 0.847 | 0.449 | 0.419 | 0.249 | 0.324 | 1.13 | 1.09 | 0.94 | 0.877
HCC-44 | 0.993 | 0.886 | 0.897 | 1.27 | 0.764 | 0.687 | 0.692 | 0.536 | 0.747 | 0.787 | 0.697 | 0.627 |  | 1.04 | 0.819 | 0.778 |  |  |  | 
HCC-78 | 0.547 | 0.724 | 0.566 | 0.43 | 0.573 | 0.643 | 0.513 | 0.436 | 0.363 | 0.288 | 0.38 | 0.329 | 0.421 | 0.422 | 0.408 | 0.366 | 0.544 | 0.733 | 0.467 | 0.376
HCC-366 | 0.951 | 0.859 | 1.09 | 0.849 | 0.531 | 0.513 | 0.531 | 0.257 | 0.504 | 0.505 | 0.445 | 0.522 | 0.146 | 0.126 | 0.0694 | 0.0567 | 0.948 | 0.841 | 0.98 | 0.757
HCC-827 | 0.831 | 1.17 | 0.99 | 0.676 | 0.957 | 1.02 | 0.958 | 0.995 | 0.856 | 0.844 | 0.858 | 0.905 | 0.407 | 0.352 | 0.4 | 0.416 | 0.998 | 0.943 | 1.02 | 0.756
IA-LM | 0.847 | 1.07 | 0.896 | 0.631 | 0.606 | 0.299 | 0.698 | 0.815 | 0.751 | 0.712 | 0.606 | 0.448 |  |  |  |  | 1.19 | 1.1 | 1.16 | 0.97
LK-2 |  |  |  |  | 0.554 | 0.522 | 0.461 | 0.231 | 0.243 | 0.235 | 0.233 | 0.17 | 0.175 | 0.147 | 0.18 | 0.173 | 1.34 | 1.24 | 1.05 | 0.761
NCI-H358 |  |  |  |  | 0.664 | 0.73 | 0.681 | 0.462 | 0.528 | 0.596 | 0.563 | 0.292 | 0.103 | 0.101 | 0.0978 | 0.112 | 0.766 | 0.626 | 0.685 | 0.279
NCI-H522 |  |  |  |  |  |  |  |  |  |  |  |  | 0.557 | 0.607 | 0.629 | 0.621 |  |  |  | 
NCI-H1299 | 1.02 | 1.14 | 1.06 | 1.22 | 1.01 | 0.871 | 0.999 | 0.655 | 0.929 | 0.914 | 0.941 | 0.86 |  |  |  |  | 1.13 | 1.23 | 1.14 | 1.08
NCI-H1395 |  |  |  |  | 0.965 | 1.21 | 0.916 | 0.768 |  |  |  |  | 0.726 | 0.785 | 0.708 | 0.769 | 0.975 | 0.95 | 0.9 | 0.72
NCI-H1563 | 0.916 | 0.882 | 0.824 | 0.664 | 1.24 | 1.12 | 1.31 | 0.903 | 0.817 | 0.872 | 0.85 | 0.834 |  |  |  |  | 0.913 | 0.997 | 0.936 | 0.685
NCI-H1648 |  |  |  |  |  |  |  |  |  |  |  |  | 0.511 | 0.609 | 0.417 | 0.299 |  |  |  | 
NCI-H1650 | 0.225 | 0.179 | 0.211 | 0.205 |  |  |  |  | 1.06 | 1.06 | 1.03 | 0.702 | 0.391 | 0.359 | 0.357 | 0.342 | 1.07 | 1.45 | 1.14 | 0.911
NCI-H1703 | 0.286 | 0.45 | 0.298 | 0.235 | 0.984 | 0.193 | 0.637 | 0.323 | 0.73 | 0.569 | 0.684 | 0.221 |  |  |  |  | 0.297 |  | 0.262 | 0.167
NCI-H1792 | 1.03 | 0.883 | 0.948 | 0.67 | 0.565 | 0.485 | 0.392 | 0.449 | 0.947 | 1.02 | 0.967 | 1.02 |  |  |  |  |  |  |  | 
NCI-H1793 |  |  |  |  | 0.99 | 0.979 | 0.712 | 0.545 |  |  |  |  | 0.38 | 0.39 | 0.313 | 0.184 | 0.669 | 0.809 | 0.648 | 0.406
NCI-H1944 |  |  |  |  | 1.18 | 1.16 | 1.06 | 0.839 | 1.07 | 1.08 | 1 | 1.1 | 0.268 | 0.269 | 0.261 | 0.232 | 0.87 | 0.786 | 0.832 | 0.61
NCI-H2170 |  |  |  |  |  |  |  |  | 1.18 | 1.24 | 1.15 | 1.29 | 0.681 | 0.769 | 0.729 | 0.621 | 1.09 | 1.01 | 0.991 | 0.97
NCI-H2342 |  |  |  |  |  |  |  |  |  |  |  |  | 0.57 | 0.487 | 0.551 | 0.538 | 0.958 | 1.11 | 0.914 | 0.731
SK-MES-1 |  |  |  |  | 1.13 | 1.17 | 1.07 | 1.06 | 0.966 | 0.929 | 0.931 | 0.94 | 0.803 | 0.819 | 0.741 | 0.578 | 0.894 | 1.14 | 0.986 | 1
SW 900 |  |  |  |  |  |  |  |  |  |  |  |  | 0.578 | 0.525 | 0.59 | 0.466 | 0.813 | 0.91 | 0.843 | 0.66
